From PMC10820070, “Hydroxylated Tetramethoxyflavone Affects Intestinal Cell Permeability and Inhibits Cytochrome P450 Enzymes” (Molecules, 2024)
“And” between values parts separate entries of the source, which are not always exact repeats. Equal entries are not always repeated. Marks after values point to notes of the source that are not given here.

Key:
CYP2C19 = target: T1, CYP2C19 (Homo sapiens, UniProt P33261); test: CYP inhibition assay (P450 Baculosomes/Vivid substrate, fluorescence), 10-dose IC50; format: biochemical; conditions: mean ± S.D.; ND: Not Detected
T1 construct: purchased Invitrogen Corp. (Madison, WI, USA); host or cells: insect cells (baculovirus)

CYP2C9 = CYP2C9 (Homo sapiens, UniProt P11712); test: as above
CYP3A4 = CYP3A4 (Homo sapiens, UniProt P08684); test: as above
Caco-2 cell monolayer = test: Transport of TMFs across Caco-2 cell monolayer, apical to basolateral; format: in vitro ADME, human; conditions: 300 μg/mL TMF loaded on apical side, mean ± S.D
Protocol: (§1) Caco-2 cells were cultured in Dulbecco’s modified Eagle’s medium (DMEM; GIBCO, Carlsbad, CA, USA) supplemented with 10% fetal bovine serum (GIBCO), 1% nonessential amino acid solution, and antibiotics (100 U/mL penicillin and 100 µg/mL streptomycin from GIBCO) with a minor modification according to Lu. Cells were grown in an incubator with 5% CO2 and 95% humidity at 37 °C, with medium replaced every 2–3 days. The tests were carried out using cells from passages 25–35. Transwell inserts with a polycarbonate membrane (diameter 1.2 cm, pore size 0.4 μm; Corning Costar Co., Corning, NY, USA) were used in 12-well plates. Caco-2 cells were planted at 5 × 10^5 cells/cm^2 on the membrane inserts, and 0.5 and 1.5 mL of culture media were placed on the apical and basolateral sides, respectively. The medium was changed three times a week, and the Caco-2 cells used in the studies had been cultured in the Transwells for approximately 21 days. The integrity of the cell layer was assessed using Millicell ERS equipment by measuring transepithelial electrical resistance (TEER) values (Millipore Co., Bedford, MA, USA). Monolayers with TEER values greater than 400 Ωcm^2 were used for transport and absorption studies.
(§2) Transport experiments were conducted using modified methodologies from the literature. Before adding the test solution, the apical and basolateral sides of the Coco-2 cell monolayer grown in Transwell inserts were washed three times with Hank’s balanced salt solution (GIBCO). The apical-to-basolateral permeability was measured by adding 0.5 mL of the test solution containing 300 μg/mL TMFs and 1.5 mL of HBSS to the apical and basolateral sides, respectively, and incubating at 37 °C for 0.5, 1, 2, and 4 h. The concentration of TMF utilized was determined using the Caco-2 cell viability test findings. TMF was dissolved and diluted with HBSS before the experiment began. The apical and basolateral solutions were collected after incubation for 0.5, 1, 2, and 4 h, and the concentration of TMF was determined using LC-MS. The apparent permeability coefficient (Papp in cm/s) was calculated over a four-hour duration using Equation (1):Papp = (V/AC0) × (dC/dt)(1) where V is the volume of solution on the basolateral side (1.5 mL); A is the membrane surface area (1.12 cm^2); C0 is the initial concentration on the apical side; and dC/dt is the change in concentration in the basolateral side over time.
(§3) The transport efficiency (%) was calculated using Equation (2):Transport efficiency (%) = (Cbs)/(Cas) × 100 (%)(2) where Cbs is the concentration of TMF transported in the basolateral side; and Cas is the initial concentration of TMF added to the apical side.

[1] = as above; format: in vitro ADME, human; conditions: human, Caco-2, calculated over four hours, read-out: apparent permeability coefficient (Papp)
Protocol: as §1, §2, §3

CYP2D6 = target: T2, CYP2D6 (Homo sapiens, UniProt P10635); test: CYP inhibition assay (P450 Baculosomes/Vivid substrate, fluorescence), 10-dose IC50; format: biochemical; conditions: mean ± S.D.; ND: Not Detected
T2 construct: purchased Invitrogen Corp. (Madison, WI, USA); host or cells: insect cells (baculovirus)

CYP1A2 = target: T3, CYP1A2 (Homo sapiens, UniProt P05177); test: as above
T3 sequence (P05177 2-516 limits assumed): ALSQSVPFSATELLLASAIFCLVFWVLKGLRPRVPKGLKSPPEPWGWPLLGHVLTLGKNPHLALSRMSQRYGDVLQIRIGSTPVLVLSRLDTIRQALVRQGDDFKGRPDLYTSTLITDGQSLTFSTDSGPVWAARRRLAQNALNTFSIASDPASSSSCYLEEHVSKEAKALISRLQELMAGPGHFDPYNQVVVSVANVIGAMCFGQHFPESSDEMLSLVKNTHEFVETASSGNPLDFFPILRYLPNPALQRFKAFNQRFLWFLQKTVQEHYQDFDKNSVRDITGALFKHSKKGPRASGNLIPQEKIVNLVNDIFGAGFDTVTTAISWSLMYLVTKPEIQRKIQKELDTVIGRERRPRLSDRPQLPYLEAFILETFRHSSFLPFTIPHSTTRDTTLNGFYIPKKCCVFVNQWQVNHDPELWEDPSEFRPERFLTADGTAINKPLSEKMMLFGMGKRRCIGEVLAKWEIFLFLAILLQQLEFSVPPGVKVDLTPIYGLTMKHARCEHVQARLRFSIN

[2] = tested on: cytochrome P450s (CYP) 1A2; parameters: method as in PMID 22056445; conditions: in vitro; read-out: IC50 against CYP1A2; cited from earlier work
[3] = tested on: cytochrome P450s (CYP) 3A4; parameters: method as in PMID 22056445; conditions: in vitro; read-out: IC50 against CYP3A4; cited from earlier work
[4] = tested on: CYP1A2, CYP2C9, CYP2C19 (range over the three); test: CYP inhibition assay, summary over the enzyme panel; format: biochemical; conditions: human, probe Vivid substrates; range over CYP1A2, 2C9 and 2C19; dose-dependent

Sequence of CYP2C9 (P11712 whole entry): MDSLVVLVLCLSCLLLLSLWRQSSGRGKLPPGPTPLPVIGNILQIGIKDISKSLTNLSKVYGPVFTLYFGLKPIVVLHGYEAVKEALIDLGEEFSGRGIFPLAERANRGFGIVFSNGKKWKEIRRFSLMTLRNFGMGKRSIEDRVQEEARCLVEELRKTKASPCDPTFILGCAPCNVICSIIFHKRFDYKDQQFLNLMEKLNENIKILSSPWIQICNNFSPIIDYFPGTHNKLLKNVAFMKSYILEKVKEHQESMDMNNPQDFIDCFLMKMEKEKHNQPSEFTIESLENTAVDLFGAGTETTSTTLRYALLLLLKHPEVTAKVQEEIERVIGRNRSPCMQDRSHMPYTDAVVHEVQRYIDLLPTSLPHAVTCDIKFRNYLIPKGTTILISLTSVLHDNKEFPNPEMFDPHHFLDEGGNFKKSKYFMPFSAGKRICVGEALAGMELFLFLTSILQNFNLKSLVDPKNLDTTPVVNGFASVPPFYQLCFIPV
T1 sequence (P33261 whole entry): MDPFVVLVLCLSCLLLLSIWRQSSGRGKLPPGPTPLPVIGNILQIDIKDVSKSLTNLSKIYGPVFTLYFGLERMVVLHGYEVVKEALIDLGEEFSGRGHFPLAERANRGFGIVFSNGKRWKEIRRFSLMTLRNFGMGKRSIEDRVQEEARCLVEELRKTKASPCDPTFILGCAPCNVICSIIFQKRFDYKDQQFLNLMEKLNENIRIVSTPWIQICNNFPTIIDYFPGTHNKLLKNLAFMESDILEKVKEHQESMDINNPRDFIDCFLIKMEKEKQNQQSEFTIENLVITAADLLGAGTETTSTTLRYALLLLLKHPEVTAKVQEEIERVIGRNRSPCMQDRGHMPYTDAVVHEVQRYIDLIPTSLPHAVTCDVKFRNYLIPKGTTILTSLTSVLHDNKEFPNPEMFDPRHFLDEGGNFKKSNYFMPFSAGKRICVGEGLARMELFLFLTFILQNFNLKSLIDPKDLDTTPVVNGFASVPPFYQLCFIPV
Sequence of CYP3A4 (P08684 2-503 limits assumed): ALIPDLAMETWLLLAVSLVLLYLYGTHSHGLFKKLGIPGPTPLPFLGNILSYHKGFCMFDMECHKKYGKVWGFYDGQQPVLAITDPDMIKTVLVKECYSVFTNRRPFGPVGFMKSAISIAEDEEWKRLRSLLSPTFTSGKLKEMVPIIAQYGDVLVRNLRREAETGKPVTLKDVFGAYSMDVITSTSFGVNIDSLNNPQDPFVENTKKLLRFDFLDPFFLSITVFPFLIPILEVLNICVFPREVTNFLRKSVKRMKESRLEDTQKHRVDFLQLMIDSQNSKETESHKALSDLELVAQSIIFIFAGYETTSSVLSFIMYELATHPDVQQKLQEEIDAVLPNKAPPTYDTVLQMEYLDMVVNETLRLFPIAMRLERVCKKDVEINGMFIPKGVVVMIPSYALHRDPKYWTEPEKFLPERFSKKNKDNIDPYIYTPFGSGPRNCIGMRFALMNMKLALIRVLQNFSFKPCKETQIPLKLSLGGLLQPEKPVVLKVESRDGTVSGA
T2 sequence (P10635 whole entry): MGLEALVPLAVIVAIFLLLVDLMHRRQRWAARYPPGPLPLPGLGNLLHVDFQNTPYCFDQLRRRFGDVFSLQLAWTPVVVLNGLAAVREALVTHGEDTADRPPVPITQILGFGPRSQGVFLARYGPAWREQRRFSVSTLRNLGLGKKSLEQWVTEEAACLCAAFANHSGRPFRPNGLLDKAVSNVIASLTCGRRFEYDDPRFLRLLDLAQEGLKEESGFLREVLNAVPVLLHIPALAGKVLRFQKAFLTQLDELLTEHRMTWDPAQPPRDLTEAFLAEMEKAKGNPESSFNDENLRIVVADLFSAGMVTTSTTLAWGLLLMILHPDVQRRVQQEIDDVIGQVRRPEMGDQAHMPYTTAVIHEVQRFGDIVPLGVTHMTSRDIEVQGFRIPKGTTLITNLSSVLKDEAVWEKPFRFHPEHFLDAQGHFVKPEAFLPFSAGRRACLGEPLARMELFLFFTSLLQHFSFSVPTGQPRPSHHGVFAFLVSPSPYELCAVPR

| SMILES | IC50 (CYP2C19) | IC50 (CYP2C9) | IC50 (CYP3A4) | Transport Efficiency (%) (Caco-2 cell monolayer; 1 h) | Transport Efficiency (%) (Caco-2 cell monolayer; 2 h) | Transport Efficiency (%) (Caco-2 cell monolayer; 4 h) | Papp at 4 h, 300 μg/mL [1] | IC50 (CYP2D6) | IC50 (CYP1A2) | IC50 at 25 min [4] | IC50 [2] | IC50 [3] |
| --- | --- | --- | --- | --- | --- | --- | --- | --- | --- | --- | --- | --- |
| COc1ccc2oc(-c3cc(OC)c(OC)cc3OC)c(O)c(=O)c2c1 [3H6-TMF, 3-hydroxy-2′,4′,5′,6-tetramethoxyflavone] | 10.2 ± 2.47 µM | 8.03 ± 3.75 µM | 0.44 ± 0.12 µM | 25.42 ± 1.92 ^c % | 33.27 ± 2.59 ^b % | 39.43 ± 2.50% and 39% and 39.43 ± 3.50 ^a % | 17.4 ×10⁻⁶ cm/s | 95.5 ± 3.21 µM | 20.6 ± 0.98 µM | – | – | – |
| COc1ccc2c(=O)c(O)c(-c3cc(OC)c(OC)cc3OC)oc2c1 [3H7-TMF, 3-hydroxy-2′,4′,5′,7-tetramethoxyflavone] | 14.8 ± 3.15 µM | 18.3 ± 8.93 µM | 0.15 ± 0.07 µM | 37.82 ± 0.07 ^c % | 41.96 ± 1.14 ^b % | 46% and 46.29 ± 2.16 ^a % | 19.5 ×10⁻⁶ cm/s | 2.28 ± 0.46 µM | 15.5 ± 1.95 µM | – | – | – |
| COc1cc(-c2cc(=O)c3c(O)c(OC)c(OC)c(OC)c3o2)ccc1O [8-methoxycirsilineol, 4′,5-dihydroxy-3′,6,7,8-tetramethoxy flavone] | – | – | – | – | – | – | – | – | – | – | 2.41 µM | 1.71 µM |
| COc1cc(OC)c2c(=O)cc(-c3ccc(OC)c(OC)c3)oc2c1 [57-TMF, 3′,4′,5,7-tetramethoxyflavone] | – | 62.5 ± 2.12 µM | 3.56 ± 1.23 µM | 22.48 ± 3.90 ^c % | 33.03 ± 0.46 ^b % | 34.00 ± 0.01% and 34.00 ± 1.81 ^ab % | 14.3 ×10⁻⁶ cm/s | – | 35.6 ± 12.3 µM | – | – | – |
| COc1ccc(-c2cc(=O)c3ccc(OC)c(OC)c3o2)cc1OC [78-TMF, 3′,4′,7,8-tetramethoxyflavone] | 1.85 ± 0.14 µM | 1.49 ± 0.16 µM | 108 ± 6.31 µM | 30.49 ± 0.05 ^c** % | 33.98 ± 0.75 ^b % | 37.58 ± 0.11% and 37.58 ± 2.11 ^a % | 8.83 ×10⁻⁶ cm/s | – | 0.79 ± 0.12 µM | 0.79 to 1.85 µM | – | – |
